Test results reported in ChEMBL document CHEMBL1201862, “PubChem BioAssay data set” (2004).
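Interpolation was linear, between the two tested concentrations surrounding the appropriate level; five concentrations were tested over 48 hours in 96-well plates. At the GI50, growth is halved.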 Calls of active or inactive are those of the source. Rule as the data show it: active = GI50 up to about 1.1 µM and inactive = higher.

Columns and labels:
Test in all cases: DTP human tumour cell line panel, 48 h
[1] = tested on: MDA-MB-435
[2] = tested on: HOP-92
[3] = tested on: 786-0
[4] = tested on: SK-MEL-28
[5] = tested on: OVCAR-4
[6] = tested on: NCI-H522
[7] = tested on: HOP-62
[8] = tested on: UACC-257
[9] = tested on: HCT-15
[10] = tested on: NCI-H460
[11] = tested on: NCI/ADR-RES
[12] = tested on: HL-60
[13] = tested on: SR
[14] = tested on: EKVX
[15] = tested on: RPMI-8226
[16] = tested on: SN12C
[17] = tested on: SK-OV-3
[18] = tested on: M14
[19] = tested on: CAKI-1
[20] = tested on: T47D
[21] = tested on: COLO 205
[22] = tested on: IGROV-1
[23] = tested on: Hs-578T
[24] = tested on: OVCAR-3
[25] = tested on: SW-620
[26] = tested on: CCRF-CEM
[27] = tested on: SF-539
[28] = tested on: OVCAR-5
[29] = tested on: MDA-N
[30] = tested on: SNB-19
[31] = tested on: K562
[32] = tested on: SNB-75
[33] = tested on: SF-268
[34] = tested on: UACC-62
[35] = tested on: KM12
[36] = tested on: SF-295
[37] = tested on: RXF 393
[38] = tested on: SK-MEL-2
[39] = tested on: SK-MEL-5
[40] = tested on: A549
[41] = tested on: HCC 2998
[42] = tested on: HT-29
[43] = tested on: LOX IMVI
[44] = tested on: TK-10
[45] = tested on: A498
[46] = tested on: MCF7
[47] = tested on: DU-145
[48] = tested on: UO-31
[49] = tested on: BT-549
[50] = tested on: U-251
[51] = tested on: ACHN
[52] = tested on: HCT-116
[53] = tested on: NCI-H23
[54] = tested on: Malme-3M
[55] = tested on: MDA-MB-231
[56] = tested on: PC-3
[57] = tested on: OVCAR-8
[58] = tested on: MOLT-4
[59] = tested on: NCI-H226

`CC1(C)OCC(C2OC(N3O[C@H](CI)C[C@@H]3c3ccccc3)C3OC(C)(C)OC23)O1` (some centres undefined) was tested, and the GI50 [1] was > 100 µM (inactive), the GI50 [2] was > 100 µM (inactive) and the GI50 [3] was > 100 µM (inactive). For the same molecule, the GI50 [4] was > 100 µM (inactive), the GI50 [5] was > 100 µM (inactive) and the GI50 [6] was > 100 µM (inactive). The GI50 [7] was > 100 µM (inactive), the GI50 [8] was > 100 µM (inactive) and the GI50 [9] was greater than 100 µM. The GI50 [10] was 56.1 µM (inactive), the GI50 [11] was > 100 µM (inactive) and the GI50 [12] was 66.5 µM (inactive). For the same molecule, the GI50 [13] was 48.5 µM (inactive), the GI50 [14] was > 100 µM (inactive) and the GI50 [15] was 43 µM (inactive). For the same molecule, the GI50 [16] was > 100 µM (inactive), the GI50 [17] was > 100 µM (inactive) and the GI50 [18] was 82 µM (inactive). The GI50 [19] was > 100 µM (inactive), the GI50 [20] was > 100 µM (inactive) and the GI50 [21] was > 100 µM (inactive). For the same molecule, the GI50 [22] was > 100 µM (inactive), the GI50 [23] was > 100 µM (inactive) and the GI50 [24] was > 100 µM (inactive). For the same molecule, the GI50 [25] was > 100 µM (inactive), the GI50 [26] was > 100 µM (inactive) and the GI50 [27] was > 100 µM (inactive). For the same molecule, the GI50 [28] was > 100 µM (inactive), the GI50 [29] was > 100 µM (inactive) and the GI50 [30] was > 100 µM (inactive). The GI50 [31] was > 100 µM (inactive), the GI50 [32] was > 100 µM (inactive) and the GI50 [33] was > 100 µM (inactive). The GI50 [34] was > 100 µM (inactive), the GI50 [35] was > 100 µM (inactive) and the GI50 [36] was > 100 µM (inactive). The GI50 [37] was > 100 µM (inactive), the GI50 [38] was > 100 µM (inactive) and the GI50 [39] was 48.8 µM (inactive). For the same molecule, the GI50 [40] was > 100 µM (inactive), the GI50 [41] was > 100 µM (inactive) and the GI50 [42] was 61.9 µM (inactive). The GI50 [43] was > 100 µM (inactive), the GI50 [44] was > 100 µM (inactive) and the GI50 [45] was > 100 µM (inactive). The GI50 [46] was > 100 µM (inactive), the GI50 [47] was > 100 µM (inactive) and the GI50 [48] was > 100 µM (inactive). The GI50 [49] was 99.3 µM (inactive), the GI50 [50] was > 100 µM (inactive) and the GI50 [51] was > 100 µM (inactive). The GI50 [52] was 61 µM (inactive), the GI50 [53] was > 100 µM (inactive) and the GI50 [54] was > 100 µM (inactive). The GI50 [55] was > 100 µM (inactive) and the GI50 [56] was 34 µM (inactive).

With `CC/C(=N/O)c1ccc(Br)s1` the GI50 [1] was > 100 µM (inactive), the GI50 [2] was 40.3 µM (inactive) and the GI50 [3] was > 100 µM (inactive). The GI50 [4] was > 100 µM (inactive), the GI50 [5] was > 100 µM (inactive) and the GI50 [6] was > 100 µM (inactive). For the same molecule, the GI50 [7] was > 100 µM (inactive), the GI50 [8] was > 100 µM (inactive) and the GI50 [9] was greater than 100 µM. For the same molecule, the GI50 [10] was > 100 µM (inactive), the GI50 [11] was > 100 µM (inactive) and the GI50 [12] was 28.6 µM (inactive). The GI50 [13] was 40.3 µM (inactive), the GI50 [14] was 5.61 µM (inactive) and the GI50 [16] was > 100 µM (inactive). For the same molecule, the GI50 [17] was > 100 µM (inactive), the GI50 [57] was > 100 µM (inactive) and the GI50 [18] was > 100 µM (inactive). The GI50 [19] was > 100 µM (inactive), the GI50 [20] was 70 µM (inactive) and the GI50 [21] was > 100 µM (inactive). The GI50 [22] was 55.6 µM (inactive), the GI50 [23] was 95.1 µM (inactive) and the GI50 [24] was > 100 µM (inactive). The GI50 [25] was > 100 µM (inactive), the GI50 [26] was 41.1 µM (inactive) and the GI50 [27] was 27.1 µM (inactive). For the same molecule, the GI50 [28] was > 100 µM (inactive), the GI50 [29] was > 100 µM (inactive) and the GI50 [30] was 66.1 µM (inactive). The GI50 [31] was > 100 µM (inactive), the GI50 [32] was 67.8 µM (inactive) and the GI50 [58] was 44.7 µM (inactive). For the same molecule, the GI50 [33] was > 100 µM (inactive), the GI50 [34] was 84.1 µM (inactive) and the GI50 [35] was > 100 µM (inactive). The GI50 [36] was > 100 µM (inactive), the GI50 [37] was 70.3 µM (inactive) and the GI50 [38] was > 100 µM (inactive). The GI50 [39] was > 100 µM (inactive), the GI50 [40] was > 100 µM (inactive) and the GI50 [41] was > 100 µM (inactive). The GI50 [42] was > 100 µM (inactive), the GI50 [43] was 51.9 µM (inactive) and the GI50 [44] was > 100 µM (inactive). For the same molecule, the GI50 [45] was > 100 µM (inactive), the GI50 [46] was > 100 µM (inactive) and the GI50 [59] was > 100 µM (inactive). For the same molecule, the GI50 [47] was > 100 µM (inactive), the GI50 [48] was 58.6 µM (inactive) and the GI50 [49] was > 100 µM (inactive). The GI50 [50] was > 100 µM (inactive), the GI50 [51] was 92 µM (inactive) and the GI50 [52] was > 100 µM (inactive). The GI50 [53] was > 100 µM (inactive), the GI50 [54] was > 100 µM (inactive) and the GI50 [55] was > 100 µM (inactive). The GI50 [56] was > 100 µM (inactive).
